The subject of one series is PC-9. Kind of series: Cytotoxicity against human PC9 cells at 10 uM. It is filed as functional, cell-based.
Series [1] concerns the target T1, Nuclear factor erythroid 2-related factor 2 (Homo sapiens) (UniProt Q16236).
T1 sequence (whole entry): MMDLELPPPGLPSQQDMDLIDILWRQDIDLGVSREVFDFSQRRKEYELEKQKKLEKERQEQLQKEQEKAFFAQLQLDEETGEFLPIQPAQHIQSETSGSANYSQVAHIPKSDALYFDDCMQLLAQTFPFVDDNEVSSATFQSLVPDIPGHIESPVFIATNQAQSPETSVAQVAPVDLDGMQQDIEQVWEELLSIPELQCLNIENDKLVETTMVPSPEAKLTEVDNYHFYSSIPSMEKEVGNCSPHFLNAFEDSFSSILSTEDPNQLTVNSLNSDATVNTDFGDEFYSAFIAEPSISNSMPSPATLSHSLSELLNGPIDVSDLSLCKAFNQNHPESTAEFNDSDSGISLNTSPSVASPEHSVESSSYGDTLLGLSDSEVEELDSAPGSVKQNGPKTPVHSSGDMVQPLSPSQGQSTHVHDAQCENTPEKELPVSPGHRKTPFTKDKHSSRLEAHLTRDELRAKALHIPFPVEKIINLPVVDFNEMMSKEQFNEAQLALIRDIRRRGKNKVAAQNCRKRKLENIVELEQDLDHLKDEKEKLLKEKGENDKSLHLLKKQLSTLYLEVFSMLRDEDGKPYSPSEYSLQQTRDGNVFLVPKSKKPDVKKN
Briefly: Activation of Nrf2 in human HaCaT cells assessed as upregulation of HO-1 protein expression at 20 uM after 12 hrs in presence of MAPK p38 inhibitor SB239063 by Western blot analysis. It is filed as cell-based. (A western blot detects proteins with antibodies after separation by electrophoresis.)

Series [2] concerns the target T2, MAP kinase p38 (Homo sapiens) (UniProt O15264+Q15759+Q16539+P53778). Kind of series: Activation of MAPK p38 in human HaCaT cells assessed as upregulation of Nrf2 mRNA expression measured up to 6 hrs RT-qPCR analysis. In kind it is cell-based. In general terms: In qPCR the cycle at which signal appears reflects the starting amount.
A further series deals with HepG2. Briefly: Cytotoxicity against human HepG2 cells at 10 uM. It is filed as functional, cell-based.
The target in series [3] is T2, MAP kinase p38 (Homo sapiens). Briefly: Induction of MAPK p38 phosphorylation in human HaCaT cells at 20 uM after 2 hrs in presence of MAPK p38 inhibitor SB239063 by Western blot analysis. In kind it is cell-based.
The target in series [4] is T1, Nuclear factor erythroid 2-related factor 2 (Homo sapiens). Briefly: Activation of Nrf2 in human HaCaT cells transfected with ARE-luciferase containing ARE consensus sequence assessed as Nrf2 binding to ARE at 20 uM after 6 hrs by luciferase reporter gene assay. It is filed as cell-based. A general note: A reporter such as luciferase makes a cellular process visible.

Series [5] addresses T2, MAP kinase p38 (Homo sapiens). Kind of series: Activation of MAPK p38 in human HaCaT cells assessed as nuclear translocation of Nrf2 measured after 6 hrs by Western blot analysis. It is filed as cell-based.
The subject of the next series is A549. Briefly: Cytotoxicity against human A549 cells at 10 uM. In kind it is functional, cell-based.
The subject of series [6] is HaCaT. Briefly: Induction of ARE promoter activity in human HaCaT cells transfected with Nrf2-siRNA at 5 to 20 uM after 6 hrs by luciferase reporter gene assay. In kind it is functional, cell-based.
Series [7] relates to HaCaT. Briefly: Cytoprotective activity against H2O2-induced cell damage in human HaCaT cells assessed as cell survival preincubated for 20 hrs followed by H2O2 addition measured after 4 hrs by WST-8 assay. It is filed as functional, cell-based.
The target of series [8] is T1, Nuclear factor erythroid 2-related factor 2 (Homo sapiens). Kind of series: Activation of Nrf2 in human HaCaT cells assessed as increase in HO-1 expression level at 20 uM by Western blot analysis. It is filed as cell-based. Conditions: TDE = time-dependent effect.
For series [9], the system named is HaCaT. Briefly: Upregulation of Nrf2 protein expression in human HaCaT cells transfected with Nrf2-siRNA at 20 uM after 6 hrs by Western blot analysis. In kind it is functional, cell-based.
In series [10] the target is T2, MAP kinase p38 (Homo sapiens). Kind of series: Activation of MAPK p38 in human HaCaT cells assessed as nuclear translocation of Nrf2 at 10 uM measured after 6 hrs Western blot analysis. It is filed as cell-based.
Series [11] deals with T1, Nuclear factor erythroid 2-related factor 2 (Homo sapiens). Briefly: Activation of Nrf2 in human HaCaT cells assessed as increase in HO-1 mRNA expression at 20 uM by Western blot analysis. As to conditions: TDE = time-dependent effect. It is filed as cell-based.
The target is the same in series [12]. Kind of series: Activation of Nrf2 in human HaCaT cells assessed as increase in HO-1 expression level after 12 hrs by Western blot analysis. It is filed as cell-based.
Series [13] deals with T2, MAP kinase p38 (Homo sapiens). Briefly: Activation of MAPK p38 in human HaCaT cells assessed as upregulation of Nrf2 mRNA expression at 20 uM measured up to 6 hrs RT-qPCR analysis. It is filed as cell-based.
In series [14] the test system is HaCaT. Briefly: Cytotoxicity against human HaCaT cells assessed as reduction in cell viability at 5 to 20 uM after 24 to 48 hrs by WST-8 assay. In kind it is cell-based.
In series [15] the target is T2, MAP kinase p38 (Homo sapiens). Briefly: Activation of MAPK p38 in human HaCaT cells assessed as nuclear translocation of Nrf2 at 20 uM after 6 hrs by DAPI staining-based immunofluorescence microscopic method. It is filed as cell-based.
For series [16], the system named is HaCaT. Briefly: Upregulation of HO-1 protein expression in human HaCaT cells transfected with Nrf2-siRNA at 20 uM after 6 hrs by Western blot analysis. In kind it is functional, cell-based.
In series [17] the target is T1, Nuclear factor erythroid 2-related factor 2 (Homo sapiens). Briefly: Activation of Nrf2 in human HaCaT cells assessed as increase in HO-1 mRNA expression after 12 hrs by RT-qPCR analysis. It is filed as cell-based.
Series [18] addresses T2, MAP kinase p38 (Homo sapiens). Briefly: Induction of MAPK p38 phosphorylation in human HaCaT cells at 20 uM up to 6 hrs by Western blot analysis. It is filed as cell-based.
For series [19] the target is unchanged. Kind of series: Activation of MAPK p38 in human HaCaT cells assessed as upregulation of Nrf2 protein expression in nucleus at 20 uM after 6 hrs in presence of MAPK p38 inhibitor SB239063 by Western blot analysis. In kind it is cell-based.

Active and inactive are the calls of the source. The calls are words filed in the database; no cut-off is given here.

For the compound `COc1ccc2cc(N(C)C(=O)C3=NO[C@H]4[C@H](O)C=C[C@@H](Cl)[C@@]4(O)C3)c(=O)oc2c1OC`, the outcome (in the series with PC-9; with HepG2; in [4]; in the series with A549; in series [10]; in series [13]) was Active. Also, the result in series [15] and in series [18] was Active. Further, the outcome (in [1]; in series [3]; with HaCaT [6]; in the series on HaCaT [9]; in the series with HaCaT [16]; in series [19]) was inactive. Moreover, the Activity result is “Dose-dependent effect” in [2]; “Dose-dependent effect” in [5]; “Dose-dependent effect” in the series with HaCaT [7]; “Tde” in series [8]; “Tde” in series [11]; “Dose-dependent effect” in [12]. Also, the figures for the Activity result (with HaCaT [14]; in series [17]) were “Non-Toxic” and “Dose-dependent effect”, respectively.
Turning to `COc1ccc2cc(NC(=O)C3=NO[C@H]4[C@H](O)C=C[C@@H](Cl)[C@@]4(O)C3)c(=O)oc2c1OC`, the result with PC-9, in the series with HepG2 and with A549 was Active.

The record behind these values is ChEMBL document CHEMBL4177697, “N-Me-trichodermamide B isolated from Penicillium janthinellum, with antioxidant properties through Nrf2-mediated signaling pathway” (Bioorg Med Chem, 2017).
